{
  "source": "the supplement of paper PMC10307832",
  "assay_in_all_cases": "relative viability (nuclei count vs DMSO), 5 days (fraction); higher = more cells survive",
  "key": {"GSK-J4 + Navitoclax": {"compound": "CCOC(=O)CCNc1cc(N2CCc3ccccc3CC2)nc(-c2ccccn2)n1 [GSK-J4] + CC1(C)CCC(c2ccc(Cl)cc2)=C(CN2CCN(c3ccc(C(=O)NS(=O)(=O)c4ccc(N[C@H](CCN5CCOCC5)CSc5ccccc5)c(S(=O)(=O)C(F)(F)F)c4)cc3)CC2)C1 [Navitoclax] (partner 0.5 µM)", "how_it_was_run": "(§1)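 The day after seeding in 1536-well plates, lung cancer cell lines were treated by pin tool with a single drug, or with a fixed anchor-drug dose together with five library-drug doses (not always all listed) in √10 steps. After 5 days, a combined fix-and-stain solution (final 0.05% Triton X-100, 1% formaldehyde, 1 ug/ml Hoechst) was added. Nuclei counted on 4× images gave relative viability as treated counts over vehicle counts, reported as the median of duplicate plates.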"}, "GSK-J4 + OSI-027": {"compound": "CCOC(=O)CCNc1cc(N2CCc3ccccc3CC2)nc(-c2ccccn2)n1 [GSK-J4] + COc1cccc2cc(-c3nc([C@H]4CC[C@H](C(=O)O)CC4)n4ncnc(N)c34)[nH]c12 [OSI-027] (partner 0.5 µM)", "how_it_was_run": "as §1"}, "AZ3146 + Navitoclax": {"compound": "CN1CCC(CC1)OC2=CC(=C(C=C2)NC3=NC=C4C(=N3)N(C(=O)N4C)C5CCCC5)OC [AZ3146] + CC1(C)CCC(c2ccc(Cl)cc2)=C(CN2CCN(c3ccc(C(=O)NS(=O)(=O)c4ccc(N[C@H](CCN5CCOCC5)CSc5ccccc5)c(S(=O)(=O)C(F)(F)F)c4)cc3)CC2)C1 [Navitoclax] (partner 0.5 µM)", "how_it_was_run": "as §1"}, "AZ3146 + Lapatinib": {"compound": "CN1CCC(CC1)OC2=CC(=C(C=C2)NC3=NC=C4C(=N3)N(C(=O)N4C)C5CCCC5)OC [AZ3146] + CS(=O)(=O)CCNCc1ccc(-c2ccc3ncnc(Nc4ccc(OCc5cccc(F)c5)c(Cl)c4)c3c2)o1 [Lapatinib] (partner 2 µM)", "how_it_was_run": "as §1"}},
  "data": [
    {"cell line": "UMC-11", "values": [
      {"measurement": "relative viability", "setting": "GSK-J4 + Navitoclax; first compound 0.5 µM", "value": 0.332},
      {"measurement": "relative viability", "setting": "GSK-J4 + Navitoclax; first compound 1.581 µM", "value": 0.233},
      {"measurement": "relative viability", "setting": "GSK-J4 + Navitoclax; first compound 5 µM", "value": 0.341},
      {"measurement": "relative viability", "setting": "GSK-J4 + Navitoclax; first compound 15.81 µM", "value": 0.305},
      {"measurement": "relative viability", "setting": "GSK-J4 + Navitoclax; first compound 50 µM", "value": 0.179},
      {"measurement": "relative viability", "setting": "GSK-J4 + OSI-027; first compound 0.5 µM", "value": 0.474},
      {"measurement": "relative viability", "setting": "GSK-J4 + OSI-027; first compound 5 µM", "value": 0.362},
      {"measurement": "relative viability", "setting": "GSK-J4 + OSI-027; first compound 15.81 µM", "value": 0.423},
      {"measurement": "relative viability", "setting": "GSK-J4 + OSI-027; first compound 50 µM", "value": 0.34},
      {"measurement": "relative viability", "setting": "AZ3146 + Navitoclax; first compound 0.08 µM", "value": 0.32},
      {"measurement": "relative viability", "setting": "AZ3146 + Navitoclax; first compound 0.253 µM", "value": 0.27},
      {"measurement": "relative viability", "setting": "AZ3146 + Navitoclax; first compound 0.8 µM", "value": 0.302},
      {"measurement": "relative viability", "setting": "AZ3146 + Navitoclax; first compound 2.53 µM", "value": 0.312},
      {"measurement": "relative viability", "setting": "AZ3146 + Navitoclax; first compound 8 µM", "value": 0.252},
      {"measurement": "relative viability", "setting": "AZ3146 + Lapatinib; first compound 0.08 µM", "value": 0.793},
      {"measurement": "relative viability", "setting": "AZ3146 + Lapatinib; first compound 0.253 µM", "value": 0.963},
      {"measurement": "relative viability", "setting": "AZ3146 + Lapatinib; first compound 0.8 µM", "value": 0.99},
      {"measurement": "relative viability", "setting": "AZ3146 + Lapatinib; first compound 2.53 µM", "value": 0.978},
      {"measurement": "relative viability", "setting": "AZ3146 + Lapatinib; first compound 8 µM", "value": 0.531}
    ]}
  ]
}
